Experiments:
[1] = test system: male Sprague Dawley rats; assay: gastrointestinal transit (GIT); type: in vivo; conditions: single dose (10 mg/kg), p<0.001
Description: (§1) A composition of asafoetida and milk thistle extract in a ratio of 1:3 was evaluated for effects on gastric emptying and gastrointestinal transit is Sprague-Dawley rats. Twenty-four male Sprague Dawley (SD) rats (190-200 g) were divided into four groups, each group consisted of six animals with less than 20% mean body weight range. Group I served as control group, Group II referenced standard Domiperidone, Groups III and IV were administered the composition. During experimentation, animals were housed under standard husbandry conditions at a temperature of 22±3° C., relative humidity (30-70%) and a light:dark cycle of 12:12 h. […]
All treatments were given for seven days daily in the morning except reference standard and on day 8th after fasted for 16 h all groups were administered with respective doses of the composition or standard drug Domperidone. Gastric emptying was measured by the use of phenol red method as described previously (Kawachi et al. 2011). […] The amount of phenol red in the supernatant was determined based on the absorbance at 570 nm measured using a microplate reader (Multiskan EX, Thermo Scientific). […] Gastric emptying was calculated using the formula: (1−amount of phenol red in the test sample/amount of phenol red in the standard sample)×100. […]
The composition in beadlet form was evaluated for efficacy in alleviating the delayed gastric emptying using an animal model. […]

[2] = body weight in the gastric emptying study; type: in vivo, Sprague Dawley rats; conditions: 10 mg/kg orally
Description: A composition of asafoetida and milk thistle extract in a ratio of 1:3 was evaluated for effects on gastric emptying and gastrointestinal transit is Sprague-Dawley rats. Twenty-four male Sprague Dawley (SD) rats (190-200 g) were divided into four groups, each group consisted of six animals with less than 20% mean body weight range. Group I served as control group, Group II referenced standard Domiperidone, Groups III and IV were administered the composition. During experimentation, animals were housed under standard husbandry conditions at a temperature of 22±3° C., relative humidity (30-70%) and a light:dark cycle of 12:12 h. Animals were allowed free access to pellet feed and UV purified water.
Body weights of each animal group were measured at initiation of experiment, on day 7, and fasting on day 8.

[3] = test system: male Sprague Dawley rats; assay: gastric emptying, phenol red method; type: in vivo; conditions: 10 mg/kg orally, 20 minutes after phenol red meal; control 64.94%
Description: as §1
All treatments were given for seven days daily in the morning except reference standard and on day 8th after fasted for 16 h all groups were administered with respective doses of the composition or standard drug Domperidone. Gastric emptying was measured by the use of phenol red method as described previously (Kawachi et al. 2011). […] The amount of phenol red in the supernatant was determined based on the absorbance at 570 nm measured using a microplate reader (Multiskan EX, Thermo Scientific). […] Gastric emptying was calculated using the formula: (1−amount of phenol red in the test sample/amount of phenol red in the standard sample)×100.
The percentage gastric emptying was assessed after 20 minutes of phenol red meal administration in rats. […]

With `O=c1[nH]c2ccccc2n1CCCN1CCC(n2c(=O)[nH]c3cc(Cl)ccc32)CC1` [Domperidone] the “GIT compared to control” value [1] was “significant increase”, the Body weight ([2]; Day 7) was 228.69 ± 12.07 g and the Body weight ([2]; Fasting (Day 8)) was 211.9 ± 11.72 g. It also gave a Body weight ([2]; Initial) of 209.68 ± 9.71 g and a percentage gastric emptying [3] of 78.86%.

From patent US11338006B2, “Composition and method for promoting digestive health” (Vidy Herbs, Inc., priority 2018, dated 2022)
